Data published in US9393314B2, “Meloxicam eye drops and preparation method and use thereof” (KANGYA OF NINGXIA PHARMACEUTICALS CO., LTD., priority 2013, dated 2016).
Marks after values point to notes of the source that are not given here.

Test system: rabbit eyes (aqueous humor protein concentration)
Experiment: Rabbit eye anterior chamber puncture test
Format: in vivo
Description: Thirty-six rabbits without ocular abnormalities were taken and randomly divided into six groups, with six rabbits in each group. The groups are respectively saline group, medium control group, positive control group of diclofenac sodium, 0.025%, 0.05% and 0.1% meloxicam eye drops groups. Then 0.05 mL drug solution was dropped into the rabbit eyes for experiment. The eyes were forced to be closed for 10 seconds; 45 minutes later, under local anesthesia with 0.2 mL of 1% tetracaine drops, puncturing was performed with 41/2 needle from the edge of the limbus to take 0.2 mL of primary aqueous humor; 90 minutes later, puncturing was performed again to take the secondary aqueous humor. Those two batches of aqueous humor were diluted 2-fold and 50-fold respectively. Then 0.05 mL of distilled water, aqueous humor dilution and protein standard solution were taken, 3 mL Coomassie brilliant blue staining solution was added thereto respectively, after 10 minutes of reaction, their absorbance values at 595 nm were measured, and the protein content was calculated according to the following formula: [formula]

For `O=C(O)Cc1ccccc1Nc1c(Cl)cccc1Cl` [Diclofenac sodium], the “Protein concentration in aqueous humor, Primary” value (0.05 ml/eye, puncture 45 minutes after dosing, x ± s, n 6) was 0.52 ± 0.19 mg/mL, the “Protein concentration in aqueous humor, Secondary” value (0.05 ml/eye, second puncture 90 minutes later, x ± s, n 6) was 18.05 ± 3.01**^ΔΔ mg/ml and the “inhibition of the increase in aqueous humor protein concentration caused by puncture of anterior chamber” value (vs saline and medium control groups) was “significantly inhibit”.
